Results reported in ChEMBL document CHEMBL4011620, “Design and Discovery of N-(2-Methyl-5'-morpholino-6'-((tetrahydro-2H-pyran-4-yl)oxy)-[3,3'-bipyridin]-5-yl)-3-(trifluoromethyl)benzamide (RAF709): A Potent, Selective, and Efficacious RAF Inhibitor Targeting RAS Mutant Cancers” (J Med Chem, 2017).
Active and inactive are the calls of the source. The rule behind the calls is not given here.

Experiments:
Calu-6 [1] = assay: Antiproliferative activity against human Calu6 cells harboring KRAS Q61K mutant assessed as reduction cell viability after 72 hrs by CellTiter-Glo assay; format: functional, cell-based; conditions: Calu-6, 72 h
[2] = Apparent permeability across apical to basolateral side in human Caco2 cells at pH 7.4 by LC/MS/MS analysis; conditions: Caco-2, pH 7.4
[3] = target: Tyrosine-protein kinase FRK (Homo sapiens) (UniProt P42685); assay: Binding affinity to human FRK (215 to 503 residues) expressed in mammalian expression system at 1 uM by kinome scan assay relative to control
[4] = Cmax in mouse at 3 mg/kg, po; format: ADME, organism-based; parameters: dose 3 mg/kg, route oral; conditions: in vivo
[5] = Cmax in dog at 1 mg/kg, po; format: ADME, organism-based, Canis lupus familiaris; parameters: dose 1 mg/kg, route oral; conditions: in vivo
[6] = AUC (infinity) in mouse at 3 mg/kg, po; format: ADME, organism-based; parameters: dose 3 mg/kg, route oral, time infinity; conditions: in vivo
[7] = Clearance in rat at 3 mg/kg, iv or 10 mg/kg, po; format: ADME, organism-based; conditions: in vivo
[8] = Volume of distribution at steady state in dog at 0.3 mg/kg, iv or 1 mg/kg, po; format: ADME, organism-based, Canis lupus familiaris; conditions: in vivo, read-out: Vdss
[9] = Metabolic stability in rat plasma after 3 hrs; format: ADME, cell-free; conditions: read-out: Stability
[10] = Metabolic stability in dog plasma after 3 hrs; format: ADME, cell-free, Canis lupus familiaris; conditions: read-out: Stability
[11] = Protein binding in human plasma; format: ADME, cell-free; conditions: read-out: PPB (converted)
Calu-6 [12] = assay: Antitumor activity against human Calu6 cells xenografted in nude mouse assessed as tumor regression at 200 mg/kg/day, po administered for 15 days starting on day 12 post tumor implantation measured on day 27 relative to control; format: functional
PC-3 = assay: Antitumor activity against human PC3 cells xenografted in nude mouse assessed as reduction in tumor volume at 200 mg/kg/day, po dosed on day 12 continued until day 25 post implantation; format: functional, organism-based
[13] = target: RAF proto-oncogene serine/threonine-protein kinase (Homo sapiens, UniProt P04049); assay: Activation of CRAF in human Calu6 cells assessed as increase in MEK phosphorylation after 2 hrs by FRET assay; format: cell-based
Mus musculus [14] = assay: Time during which free plasma concentration exceeds cellular in vitro EC50 for CRAF-mediated ERK phosphorylation in mouse xenografted with human Calu6 cells at 200 mg/kg, po administered as single dose
Mus musculus [15] = assay: In vivo inhibition of ERK1/2 phosphorylation at Thr202/Tyr204 and Thr185/Tyr187 in mouse xenografted with human Calu6 cells at 10 to 30 mg/kg, po administered as single dose measured at 24 hrs post dose; format: functional, organism-based
Mus musculus [16] = assay: Toxicity in nude mouse xenografted with human PC3 cells assessed as body weight loss at 200 mg/kg/day, po administered from day 12 until day 25 post tumor implantation measured twice per week of compound dosing; format: organism-based; conditions: in vivo

Sequence of RAF proto-oncogene serine/threonine-protein kinase (P04049 whole entry): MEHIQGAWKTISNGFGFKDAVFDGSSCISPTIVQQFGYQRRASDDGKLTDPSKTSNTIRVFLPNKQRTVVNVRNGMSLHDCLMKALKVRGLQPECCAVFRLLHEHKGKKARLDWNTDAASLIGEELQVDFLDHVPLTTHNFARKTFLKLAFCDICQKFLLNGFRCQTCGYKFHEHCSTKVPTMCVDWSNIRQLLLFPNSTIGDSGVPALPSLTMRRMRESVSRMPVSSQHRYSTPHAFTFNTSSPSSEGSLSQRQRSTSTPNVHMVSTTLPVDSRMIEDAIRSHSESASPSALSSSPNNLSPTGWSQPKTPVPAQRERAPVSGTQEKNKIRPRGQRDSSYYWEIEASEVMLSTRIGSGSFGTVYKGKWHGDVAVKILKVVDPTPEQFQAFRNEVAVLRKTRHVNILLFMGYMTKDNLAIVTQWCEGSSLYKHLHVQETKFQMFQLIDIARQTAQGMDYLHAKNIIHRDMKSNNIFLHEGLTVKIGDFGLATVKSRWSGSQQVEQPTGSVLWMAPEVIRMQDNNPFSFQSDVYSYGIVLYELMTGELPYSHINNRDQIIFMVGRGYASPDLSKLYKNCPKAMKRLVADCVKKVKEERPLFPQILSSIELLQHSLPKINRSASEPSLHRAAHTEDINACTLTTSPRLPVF
Sequence of Tyrosine-protein kinase FRK (Homo sapiens) (P42685 whole entry, the tested form may be a part): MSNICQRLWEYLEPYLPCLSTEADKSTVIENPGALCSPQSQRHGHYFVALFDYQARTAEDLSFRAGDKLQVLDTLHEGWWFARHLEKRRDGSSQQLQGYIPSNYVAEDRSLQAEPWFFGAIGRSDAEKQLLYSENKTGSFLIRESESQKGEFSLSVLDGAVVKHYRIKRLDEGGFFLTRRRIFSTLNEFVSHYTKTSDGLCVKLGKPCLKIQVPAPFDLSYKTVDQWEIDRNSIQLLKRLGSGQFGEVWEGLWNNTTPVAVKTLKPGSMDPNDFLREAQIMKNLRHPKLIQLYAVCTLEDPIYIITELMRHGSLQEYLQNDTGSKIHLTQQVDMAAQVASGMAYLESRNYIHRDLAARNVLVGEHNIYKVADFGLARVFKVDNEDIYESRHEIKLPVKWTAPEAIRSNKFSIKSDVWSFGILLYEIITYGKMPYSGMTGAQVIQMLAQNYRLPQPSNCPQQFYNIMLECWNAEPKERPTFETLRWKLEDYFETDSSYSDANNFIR

Cc1ncc(NC(=O)c2cccc(C(F)(F)F)c2)cc1-c1cnc(OC2CCOCC2)c(N2CCOCC2)c1
EC50 (Calu-6 [1]): 950 nM
Papp A→B [2]: 15 ×10⁻⁶ cm/s
Activity [3]: 92%
Cmax [4]: 1000 nM
Cmax [5]: 500 nM
AUC(0-inf) [6]: 1.7 µM·h
clearance [7]: 50 mL/min/kg
Vd [8]: 3.1 L/kg
remaining at 3 h [9]: 85%
remaining at 3 h [10]: 95%
fraction unbound [11]: 0.02
Activity (Calu-6 [12]): 92%
Activity (PC-3): inactive
Activity [13]: Not Active
Time (Mus musculus [14]): 24 h
inhibition (Mus musculus [15]): inactive
Activity (Mus musculus [16]): Non-Toxic
